Experimental data: ChEMBL document CHEMBL4507297, “Data for DCP probe PF-04457845” (2021)

Experiments:
[1] = target: Casein kinase I isoform gamma-3 (Homo sapiens) (UniProt Q9Y6M4); conditions: Compound concentration 1000.0 nM
[2] = target: Fibroblast growth factor receptor 3 (Homo sapiens) (UniProt P22607); conditions: Compound concentration 1000.0 nM
[3] = target: MAP kinase-activated protein kinase 2 (Homo sapiens) (UniProt P49137); conditions: Compound concentration 1000.0 nM
[4] = target: Death-associated protein kinase 3 (Homo sapiens) (UniProt O43293); conditions: Compound concentration 1000.0 nM
[5] = target: 5-hydroxytryptamine receptor 6 (Homo sapiens) (UniProt P50406); conditions: Compound concentration 10.0 uM
[6] = target: Serine/threonine-protein kinase SIK1 (Homo sapiens) (UniProt P57059); conditions: Compound concentration 1000.0 nM
[7] = target: Dual specificity mitogen-activated protein kinase kinase 2 (Homo sapiens) (UniProt P36507); conditions: Compound concentration 1000.0 nM
[8] = target: Dual specificity mitogen-activated protein kinase kinase 5 (Homo sapiens) (UniProt Q13163); conditions: Compound concentration 1000.0 nM
[9] = target: Cyclin-dependent kinase 17 (Homo sapiens) (UniProt Q00537); conditions: Compound concentration 1000.0 nM
Cyclin-dependent kinase 17 (Homo sapiens), sequence (Q00537 whole entry, looked up): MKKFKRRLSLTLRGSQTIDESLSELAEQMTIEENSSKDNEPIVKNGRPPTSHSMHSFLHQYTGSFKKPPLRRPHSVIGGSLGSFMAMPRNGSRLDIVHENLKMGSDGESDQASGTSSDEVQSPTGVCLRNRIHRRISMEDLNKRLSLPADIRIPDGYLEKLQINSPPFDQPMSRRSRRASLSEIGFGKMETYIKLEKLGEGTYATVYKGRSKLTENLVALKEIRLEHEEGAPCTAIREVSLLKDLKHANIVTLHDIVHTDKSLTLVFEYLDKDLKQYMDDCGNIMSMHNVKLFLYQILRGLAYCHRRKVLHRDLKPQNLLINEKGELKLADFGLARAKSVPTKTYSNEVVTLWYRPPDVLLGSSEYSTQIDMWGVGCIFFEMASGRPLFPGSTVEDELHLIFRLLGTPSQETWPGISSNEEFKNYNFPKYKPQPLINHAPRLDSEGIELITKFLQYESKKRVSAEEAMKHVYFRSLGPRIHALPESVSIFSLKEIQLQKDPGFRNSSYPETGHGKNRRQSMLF

[10] = target: Mitogen-activated protein kinase kinase kinase 12 (Homo sapiens) (UniProt Q12852); conditions: Compound concentration 1000.0 nM
[11] = target: Tyrosine-protein kinase ABL1 (Homo sapiens) (UniProt P00519); conditions: Compound concentration 1000.0 nM
[12] = target: Serine/threonine-protein kinase pim-1 (Homo sapiens) (UniProt P11309); conditions: Compound concentration 1000.0 nM
Serine/threonine-protein kinase pim-1 (Homo sapiens), sequence (P11309 whole entry, looked up): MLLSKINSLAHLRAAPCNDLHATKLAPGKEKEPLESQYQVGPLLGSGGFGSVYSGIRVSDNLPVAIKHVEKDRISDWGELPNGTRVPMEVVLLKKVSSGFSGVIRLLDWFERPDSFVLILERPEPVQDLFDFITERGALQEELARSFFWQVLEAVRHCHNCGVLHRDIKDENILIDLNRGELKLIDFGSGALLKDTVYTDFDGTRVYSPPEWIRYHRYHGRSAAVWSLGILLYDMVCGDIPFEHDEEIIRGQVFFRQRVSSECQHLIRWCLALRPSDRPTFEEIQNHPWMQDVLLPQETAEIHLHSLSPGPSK

[13] = target: Phosphatidylinositol 5-phosphate 4-kinase type-2 gamma (Homo sapiens) (UniProt Q8TBX8); conditions: Compound concentration 1000.0 nM
[14] = target: 5-hydroxytryptamine receptor 7 (Homo sapiens) (UniProt P34969); conditions: Compound concentration 10.0 uM
[15] = target: Protein-tyrosine kinase 2-beta (Homo sapiens) (UniProt Q14289); conditions: Compound concentration 1000.0 nM
[16] = target: SRSF protein kinase 2 (Homo sapiens) (UniProt P78362); conditions: Compound concentration 1000.0 nM
[17] = target: Serine/threonine-protein kinase WNK4 (Homo sapiens) (UniProt Q96J92); conditions: Compound concentration 1000.0 nM
[18] = target: Tyrosine-protein kinase ITK/TSK (Homo sapiens) (UniProt Q08881); conditions: Compound concentration 1000.0 nM
[19] = tested on: Tyrosine-protein kinase ABL1 (Homo sapiens), P00519 [H396P]; conditions: Compound concentration 1000.0 nM
[20] = target: Casein kinase I isoform gamma-1 (Homo sapiens) (UniProt Q9HCP0); conditions: Compound concentration 1000.0 nM
[21] = target: Serine/threonine-protein kinase STK11 (Homo sapiens) (UniProt Q15831); conditions: Compound concentration 1000.0 nM
[22] = target: Ephrin type-B receptor 3 (Homo sapiens) (UniProt P54753); conditions: Compound concentration 1000.0 nM
[23] = target: Atypical kinase COQ8A, mitochondrial (Homo sapiens) (UniProt Q8NI60); conditions: Compound concentration 1000.0 nM
[24] = target: STE20-like serine/threonine-protein kinase (Homo sapiens) (UniProt Q9H2G2); conditions: Compound concentration 1000.0 nM
[25] = target: Serine/threonine-protein kinase Nek3 (Homo sapiens) (UniProt P51956); conditions: Compound concentration 1000.0 nM
[26] = target: TGF-beta receptor type-1 (Homo sapiens) (UniProt P36897); conditions: Compound concentration 1000.0 nM
[27] = target: Tyrosine-protein kinase ZAP-70 (Homo sapiens) (UniProt P43403); conditions: Compound concentration 1000.0 nM
[28] = target: Atypical kinase COQ8B, mitochondrial (Homo sapiens) (UniProt Q96D53); conditions: Compound concentration 1000.0 nM
[29] = target: Wee1-like protein kinase 2 (Homo sapiens) (UniProt P0C1S8); conditions: Compound concentration 1000.0 nM
[30] = target: Phosphatidylinositol 3-kinase catalytic subunit type 3 (Homo sapiens) (UniProt Q8NEB9); conditions: Compound concentration 1000.0 nM
[31] = tested on: Proto-oncogene tyrosine-protein kinase receptor Ret (Homo sapiens), P07949 [M918T]; conditions: Compound concentration 1000.0 nM
[32] = target: Mitogen-activated protein kinase 14 (Homo sapiens) (UniProt Q16539); conditions: Compound concentration 1000.0 nM
Mitogen-activated protein kinase 14 (Homo sapiens), sequence (Q16539 whole entry): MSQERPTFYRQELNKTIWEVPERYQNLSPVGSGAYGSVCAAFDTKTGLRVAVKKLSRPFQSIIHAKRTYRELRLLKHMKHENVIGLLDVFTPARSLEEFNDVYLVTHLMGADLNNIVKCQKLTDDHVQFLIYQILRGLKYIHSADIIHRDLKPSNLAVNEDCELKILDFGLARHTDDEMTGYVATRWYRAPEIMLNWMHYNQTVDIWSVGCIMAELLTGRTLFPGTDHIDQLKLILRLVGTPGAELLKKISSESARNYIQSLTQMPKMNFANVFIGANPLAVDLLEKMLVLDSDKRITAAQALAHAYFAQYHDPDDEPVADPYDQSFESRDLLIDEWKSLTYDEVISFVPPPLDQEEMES

[33] = target: Mitogen-activated protein kinase 1 (Homo sapiens) (UniProt P28482); conditions: Compound concentration 1000.0 nM
Mitogen-activated protein kinase 1 (Homo sapiens), sequence (P28482 whole entry): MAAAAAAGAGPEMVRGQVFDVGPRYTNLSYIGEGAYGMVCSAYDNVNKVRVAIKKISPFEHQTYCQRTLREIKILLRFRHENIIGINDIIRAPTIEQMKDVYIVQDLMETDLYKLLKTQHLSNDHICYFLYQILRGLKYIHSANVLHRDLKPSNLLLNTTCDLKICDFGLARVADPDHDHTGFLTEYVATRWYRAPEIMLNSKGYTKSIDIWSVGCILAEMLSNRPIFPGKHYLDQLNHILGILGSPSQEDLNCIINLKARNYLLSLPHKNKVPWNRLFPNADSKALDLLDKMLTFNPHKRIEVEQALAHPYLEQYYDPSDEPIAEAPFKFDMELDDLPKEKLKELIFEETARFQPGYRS

[34] = target: Serine/threonine-protein kinase 32A (Homo sapiens) (UniProt Q8WU08); conditions: Compound concentration 1000.0 nM
Serine/threonine-protein kinase 32A (Homo sapiens), sequence (Q8WU08 whole entry): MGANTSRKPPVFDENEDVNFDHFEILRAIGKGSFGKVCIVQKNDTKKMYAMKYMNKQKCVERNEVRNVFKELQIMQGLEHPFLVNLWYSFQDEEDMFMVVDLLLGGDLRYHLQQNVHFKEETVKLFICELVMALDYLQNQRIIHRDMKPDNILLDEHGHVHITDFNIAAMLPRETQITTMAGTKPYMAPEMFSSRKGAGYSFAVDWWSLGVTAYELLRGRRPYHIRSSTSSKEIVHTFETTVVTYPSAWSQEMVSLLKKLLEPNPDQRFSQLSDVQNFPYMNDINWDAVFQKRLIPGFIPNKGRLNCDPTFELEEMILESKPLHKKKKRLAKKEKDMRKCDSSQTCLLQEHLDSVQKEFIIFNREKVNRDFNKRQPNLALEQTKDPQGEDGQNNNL

[35] = target: Mitogen-activated protein kinase kinase kinase kinase 2 (Homo sapiens) (UniProt Q12851); conditions: Compound concentration 1000.0 nM
[36] = target: Ribosomal protein S6 kinase alpha-4 (Homo sapiens) (UniProt O75676); conditions: Compound concentration 1000.0 nM
[37] = target: Megakaryocyte-associated tyrosine-protein kinase (Homo sapiens) (UniProt P42679); conditions: Compound concentration 1000.0 nM
[38] = target: High affinity nerve growth factor receptor (Homo sapiens) (UniProt P04629); conditions: Compound concentration 1000.0 nM
[39] = target: Insulin receptor (Homo sapiens) (UniProt P06213); conditions: Compound concentration 1000.0 nM
Insulin receptor (Homo sapiens), sequence (P06213 28-758 limits assumed): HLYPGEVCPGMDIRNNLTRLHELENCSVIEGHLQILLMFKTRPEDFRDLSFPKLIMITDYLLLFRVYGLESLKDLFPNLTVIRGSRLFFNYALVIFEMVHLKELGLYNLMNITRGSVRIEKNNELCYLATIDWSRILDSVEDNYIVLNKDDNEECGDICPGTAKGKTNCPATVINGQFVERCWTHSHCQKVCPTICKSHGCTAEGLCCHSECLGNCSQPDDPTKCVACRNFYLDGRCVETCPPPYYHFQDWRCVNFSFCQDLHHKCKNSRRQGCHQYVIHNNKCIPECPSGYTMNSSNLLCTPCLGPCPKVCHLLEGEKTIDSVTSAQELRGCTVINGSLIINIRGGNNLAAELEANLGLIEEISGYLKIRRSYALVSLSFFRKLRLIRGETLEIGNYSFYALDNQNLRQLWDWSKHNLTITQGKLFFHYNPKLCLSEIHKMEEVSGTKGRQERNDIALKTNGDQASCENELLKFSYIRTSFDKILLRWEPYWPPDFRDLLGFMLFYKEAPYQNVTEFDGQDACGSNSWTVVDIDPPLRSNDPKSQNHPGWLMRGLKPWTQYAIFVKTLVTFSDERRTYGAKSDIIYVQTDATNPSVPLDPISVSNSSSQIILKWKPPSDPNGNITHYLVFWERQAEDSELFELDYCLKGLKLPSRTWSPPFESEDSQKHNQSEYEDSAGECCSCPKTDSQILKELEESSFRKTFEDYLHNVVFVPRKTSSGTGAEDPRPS
Insulin receptor (Homo sapiens), sequence (P06213 763-1382 limits assumed): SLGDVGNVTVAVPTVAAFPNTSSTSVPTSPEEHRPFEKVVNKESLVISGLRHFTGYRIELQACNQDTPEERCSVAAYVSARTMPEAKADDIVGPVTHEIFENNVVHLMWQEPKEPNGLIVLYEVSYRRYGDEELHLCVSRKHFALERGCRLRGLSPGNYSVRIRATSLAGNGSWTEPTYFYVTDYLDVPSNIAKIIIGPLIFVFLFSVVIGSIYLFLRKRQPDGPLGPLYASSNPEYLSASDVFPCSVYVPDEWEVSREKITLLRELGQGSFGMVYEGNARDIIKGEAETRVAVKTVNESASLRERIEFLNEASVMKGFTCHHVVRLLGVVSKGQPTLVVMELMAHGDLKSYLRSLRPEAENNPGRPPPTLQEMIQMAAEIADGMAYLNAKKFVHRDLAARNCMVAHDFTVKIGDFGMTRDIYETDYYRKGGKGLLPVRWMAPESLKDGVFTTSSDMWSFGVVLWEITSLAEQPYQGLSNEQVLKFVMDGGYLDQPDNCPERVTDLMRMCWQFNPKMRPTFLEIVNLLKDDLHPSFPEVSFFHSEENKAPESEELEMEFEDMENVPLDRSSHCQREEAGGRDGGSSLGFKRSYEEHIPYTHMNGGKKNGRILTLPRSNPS

[40] = target: Mitogen-activated protein kinase kinase kinase kinase 5 (Homo sapiens) (UniProt Q9Y4K4); conditions: Compound concentration 1000.0 nM
[41] = target: D(2) dopamine receptor (Homo sapiens) (UniProt P14416); conditions: Compound concentration 10.0 uM
[42] = target: GABA-A receptor; anion channel (Rattus norvegicus) (UniProt O09028+P15431+P18506+P18508+P19969+P20236+P23574+P23576+P28471+P28473+P30191+P62813+P63079+P63138+Q91ZM7+Q9ES14); conditions: Compound concentration 10.0 uM
[43] = target: D(4) dopamine receptor (Homo sapiens) (UniProt P21917); conditions: Compound concentration 10.0 uM
[44] = tested on: ALK tyrosine kinase receptor (Homo sapiens), Q9UM73 [C1156Y]; conditions: Compound concentration 1000.0 nM
ALK tyrosine kinase receptor (Homo sapiens), Q9UM73 [C1156Y], sequence (Q9UM73 whole entry C1156Y, looked up): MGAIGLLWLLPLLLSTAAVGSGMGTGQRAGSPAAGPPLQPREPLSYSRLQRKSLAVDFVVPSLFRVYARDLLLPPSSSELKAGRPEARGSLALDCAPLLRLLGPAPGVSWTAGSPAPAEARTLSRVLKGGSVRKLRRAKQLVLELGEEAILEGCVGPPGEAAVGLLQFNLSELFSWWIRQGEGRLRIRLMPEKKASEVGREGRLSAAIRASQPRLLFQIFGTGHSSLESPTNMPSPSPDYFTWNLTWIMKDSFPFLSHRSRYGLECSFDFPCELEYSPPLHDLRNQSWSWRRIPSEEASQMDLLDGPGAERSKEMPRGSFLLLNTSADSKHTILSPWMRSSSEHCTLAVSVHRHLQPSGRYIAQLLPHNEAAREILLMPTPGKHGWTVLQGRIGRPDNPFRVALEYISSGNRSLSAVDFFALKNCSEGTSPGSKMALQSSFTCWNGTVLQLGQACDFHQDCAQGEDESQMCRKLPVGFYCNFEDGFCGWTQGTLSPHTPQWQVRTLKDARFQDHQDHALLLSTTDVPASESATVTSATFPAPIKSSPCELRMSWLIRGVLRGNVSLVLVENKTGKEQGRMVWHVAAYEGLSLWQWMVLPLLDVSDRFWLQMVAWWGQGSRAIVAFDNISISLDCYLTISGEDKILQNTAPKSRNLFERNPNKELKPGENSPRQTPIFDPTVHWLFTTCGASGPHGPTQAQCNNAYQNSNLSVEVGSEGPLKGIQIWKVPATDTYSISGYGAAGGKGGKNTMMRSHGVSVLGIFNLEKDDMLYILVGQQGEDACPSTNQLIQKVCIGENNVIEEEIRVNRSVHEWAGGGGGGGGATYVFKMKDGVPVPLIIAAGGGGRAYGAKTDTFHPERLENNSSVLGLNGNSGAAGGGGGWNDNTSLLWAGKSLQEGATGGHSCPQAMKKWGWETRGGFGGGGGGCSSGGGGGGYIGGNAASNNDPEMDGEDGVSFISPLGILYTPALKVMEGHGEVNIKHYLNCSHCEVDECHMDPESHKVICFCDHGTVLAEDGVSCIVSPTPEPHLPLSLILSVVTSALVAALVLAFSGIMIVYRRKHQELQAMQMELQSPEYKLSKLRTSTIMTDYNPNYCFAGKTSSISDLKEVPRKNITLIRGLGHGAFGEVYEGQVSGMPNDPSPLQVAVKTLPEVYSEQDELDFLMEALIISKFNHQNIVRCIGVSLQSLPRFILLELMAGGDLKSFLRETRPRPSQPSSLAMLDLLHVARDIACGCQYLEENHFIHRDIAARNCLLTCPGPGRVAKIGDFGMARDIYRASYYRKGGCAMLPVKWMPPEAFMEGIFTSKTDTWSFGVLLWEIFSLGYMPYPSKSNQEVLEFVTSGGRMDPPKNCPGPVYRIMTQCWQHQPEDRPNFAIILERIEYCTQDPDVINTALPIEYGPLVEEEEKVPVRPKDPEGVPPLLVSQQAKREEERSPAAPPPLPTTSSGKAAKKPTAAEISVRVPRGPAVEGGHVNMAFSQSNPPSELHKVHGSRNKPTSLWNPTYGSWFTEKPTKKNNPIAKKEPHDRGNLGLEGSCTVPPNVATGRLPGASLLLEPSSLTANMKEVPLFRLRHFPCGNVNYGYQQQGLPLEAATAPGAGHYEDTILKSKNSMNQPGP

O=C(Nc1cccnn1)N1CCC(=Cc2cccc(Oc3ccc(C(F)(F)F)cn3)c2)CC1
inactive: residual activity [1] 100% | residual activity [2] 83% | residual activity [3] 87% | residual activity [4] 79% | inhibition [5] 40.6% | residual activity [6] 100% | residual activity [7] 100% | residual activity [8] 100% | residual activity [9] 100% | residual activity [10] 100% | residual activity [11] 68% | residual activity [12] 85% | residual activity [13] 75% | inhibition [14] 37.5% | residual activity [15] 97% | residual activity [16] 100% | residual activity [17] 96% | residual activity [18] 100% | residual activity [19] 86% | residual activity [20] 100% | residual activity [21] 100% | residual activity [22] 81% | residual activity [23] 78% | residual activity [24] 74% | residual activity [25] 100% | residual activity [26] 61% | residual activity [27] 100% | residual activity [28] 81% | residual activity [29] 77% | residual activity [30] 100% | residual activity [31] 80% | residual activity [32] 100% | residual activity [33] 92% | residual activity [34] 100% | residual activity [35] 100% | residual activity [36] 98% | residual activity [37] 100% | residual activity [38] 100% | residual activity [39] 100% | residual activity [40] 100% | inhibition [41] 1.84% | inhibition [42] 7.35% | inhibition [43] -6.93% | residual activity [44] 100%

O=C(Nc1cccnn1)N1CC(C/C=C/c2cncc(Oc3ccc(C(F)(F)F)cn3)n2)C1
inactive: residual activity [1] 100% | residual activity [2] 97% | residual activity [3] 100% | residual activity [4] 100% | inhibition [5] 7.76% | residual activity [6] 100% | residual activity [7] 95% | residual activity [8] 88% | residual activity [9] 100% | residual activity [10] 83% | residual activity [11] 87% | residual activity [12] 91% | residual activity [13] 100% | inhibition [14] 1.18% | residual activity [15] 100% | residual activity [16] 100% | residual activity [18] 100% | residual activity [19] 100% | residual activity [20] 100% | residual activity [21] 64% | residual activity [22] 100% | residual activity [23] 96% | residual activity [24] 100% | residual activity [25] 100% | residual activity [26] 100% | residual activity [27] 90% | residual activity [28] 94% | residual activity [29] 100% | residual activity [30] 88% | residual activity [31] 96% | residual activity [32] 100% | residual activity [33] 100% | residual activity [34] 100% | residual activity [35] 80% | residual activity [36] 100% | residual activity [37] 59% | residual activity [38] 82% | residual activity [39] 100% | residual activity [40] 94% | inhibition [41] 13.7% | inhibition [42] 17.3% | inhibition [43] 12.3% | residual activity [44] 81%
active: residual activity [17] 0%
